Experiments:
[1] = tested on: BCL6 levels in patient #280 cells; experiment: Western blotting of BCL6 levels in patient #280 cells; type: cell-based, human; settings: 24 hours
Protocol: FIG. 14. Data showing that pre-BCR signaling contributes to survival of some BCP-ALL blasts. Data are shown for patient #280. A) Increase in apoptosis (Annexin labeling) and loss of cell viability (7AAD labeling) after prolonged incubation with dasatinib (10 μM) alone or in combination with vincristine over doses of 0.1 ng/ml to 100 ng/ml. B) Increase in apoptosis after 24-hour incubation of #280 patient cells with α-VpreB Fab (5 μM) alone or in combination with low dose vincristine (10 ng/ml).
After stated incubation +/− inhibitors or crosslinking agents, cells were washed with ice-cold PBS and held for 15 minutes on ice in Tris-based lysis buffer, with 1% NP-40 and protease and phosphatase inhibitors (ThermoFisher Scientific, Waltham, Mass.). For effects of inhibitors on BCL6 expression, treatments were carried out for 24 hours. Lysates were clarified by centrifugation at 14,000×g for 10 minutes at 4° C., then added to Laemmli's Reducing buffer. Proteins were separated on SDS-polyacrylamide and transferred to nitrocellulose membranes. […]

[2] = tested on: BCL6 expression in 697 cells; experiment: Western blotting of BCL6 expression in 697 cells; type: cell-based, human; settings: overnight (24 hours) treatment
Protocol: (§1) Results in FIG. 8 evaluate the ability of anti-VpreB Fabs, as well as inhibitors directed at pre-BCR downstream signaling partners Lyn, Syk and SHIP1 (INPP5D), to block tonic signaling from the pre-BCR.
(§2) After stated incubation +/− inhibitors or crosslinking agents, cells were washed with ice-cold PBS and held for 15 minutes on ice in Tris-based lysis buffer, with 1% NP-40 and protease and phosphatase inhibitors (ThermoFisher Scientific, Waltham, Mass.). For effects of inhibitors on BCL6 expression, treatments were carried out for 24 hours. Lysates were clarified by centrifugation at 14,000×g for 10 minutes at 4° C., then added to Laemmli's Reducing buffer. Proteins were separated on SDS-polyacrylamide and transferred to nitrocellulose membranes. After blocking with TBST (Sigma-Aldrich, St. Louis, Mo.) with 5% BSA (Sigma-Aldrich, St. Louis, Mo.), blots were probed with antibodies specific to pCD79a (Tyr 182) (Cell Signaling Technology, Inc., Danvers, Mass.), pSyk (Tyr348) (Novus Biologicals LLC, Littleton, Colo.), pSyk (Tyr 352) (Cell Signaling Technology, Inc., Danvers, Mass.) or BCL6 (Santa Cruz Biotechnology, Inc., Dallas, Tex.). Antibodies to β-Actin (Sigma-Aldrich, St. Louis, Mo.) were used as loading controls.

[3] = tested on: 697 cells; experiment: flow cytometry apoptosis assay (Annexin-V / 7-AAD), 697 cells; type: cell-based, human; settings: for apoptosis in cells treated with vincristine over a range of doses: inhibitor in combination with vincristine
Protocol: Since blocking pre-BCR pro-survival signaling may be advantageous for chemo-sensitization, one can compare apoptosis alone or in combination with a sub-lethal dose of a chemotherapeutic such as, for example, vincristine or daunorubicin.
Curves were fit using sigmoidal dose-response curve using MATLAB curve fitting toolbox (The MathWorks, Inc., Natick, Mass.).
Leukemia cell apoptosis was measured based upon binding to Annexin-V-FITC (BioLegend, Inc., San Diego, Calif.) and loss of cell viability measured by 7-AAD labeling (BioLegend, Inc., San Diego, Calif.), according to manufacturer's procedures. For receptor-binding experiments, cells were incubated under saturating conditions for 1.5 hours on ice in PBS with anti-CD79b-APC antibody (BioLegend, Inc., San Diego, Calif.) or anti-VpreB-PE antibody (BioLegend, Inc., San Diego, Calif.). […] (Bangs Laboratories, Inc., Fishers, Ind.) beads with anti-mouse Fc antibody according to manufacturer's instruction. Dissociation constants were estimated with nonlinear regression analysis under KD controlled conditions as described (Drake, A. W., and S. L. Klakamp, 2007, J Immunol Methods 318:147-152). All flow cytometry data collection was conducted on the […] platform (IntelliCyt Corp., Albuquerque, N. Mex.; Edwards et al., 2009, Methods Mol Biol 486:151-165) and analyzed with the FLOWJO Software Suite (FlowJo, LLC, Ashland, Oreg.).

[4] = tested on: pre-BCR signaling in 697 cells; experiment: Western blotting of pre-BCR tonic signaling (phospho-CD79a, phospho-Syk) with pervanadate; type: cell-based, human; settings: for accumulation of phospho-Syk (Syk phosphorylation): in the presence of pervanadate, 30-minute treatment
Protocol: as §1, §2
BCP-ALL cells were treated with pervanadate solution as previously described (Imbert et al., 1994, Biochem J297 (Pt 1):163-173; Smrz et al., 2008, J Biol Chem 283:10904-10918). Data in FIG. 8 are reported using a linear range normalization from 0 to 1.0, whereby tonic without pervanadate treatment response was set to 0 and tonic pervanadate treatment was set to 1.0: […]

[5] = target: T1, pre-BCR on 697 cells (Homo sapiens, UniProt P12018); experiment: Single Particle Tracking of pre-BCR diffusion on 697 cells; type: cell-based; settings: Fab 1 μM, galectin-1 10 μM; for overall diffusion (mobility) of pre-BCR: relative to tonic signaling, inhibitors 1 μM
T1 construct: endogenous in cells; host or cells: 697 (BCP-ALL cell line)
T1 sequence (P12018 20-145): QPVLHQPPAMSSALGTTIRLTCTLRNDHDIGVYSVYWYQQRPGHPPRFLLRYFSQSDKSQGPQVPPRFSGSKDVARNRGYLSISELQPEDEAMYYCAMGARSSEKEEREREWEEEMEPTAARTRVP
Protocol: Data are reported as changed in ensemble diffusion coefficients (MSD) for pre-BCR plus and minus saturating levels of anti-VpreB1 Fabs (1 μM). In these experiments, Fabs were added to 697 cells for 15 minutes at 37° C. prior to performing Single Particle Tracking (SPT).
Suspension cultures of BCP-ALL cell lines (697, Nalm6) were grown in RPMI 1640 with phenol red (Sigma-Aldrich, St. Louis, Mo.), with 10% (v/v) HI FBS, 1% Penicillin/Streptomycin (Gibco, Gaithersburg, Md.), and L-Glutamine 2 mM. Patient samples were cultured in IMDM, GlutaMAX medium (Gibco, Gaithersburg, Md.) supplemented with 20% (v/v) HI FBS, 1% penicillin/streptomycin, 1× insulin, transferrin and selenium (Gibco, Gaithersburg, Md.), 1 mM sodium pyruvate (Gibco, Gaithersburg, Md.), and 55 μM 2-Mercaptoethanol (Gibco, Gaithersburg, Md.). Prior to experiments, cells were washed twice with Tyrode's solution (Sigma-Aldrich, St. Louis, Mo.). Unless otherwise stated, cells were pretreated for 10 minutes with Bay-61-3606 (Santa Cruz Biotechnology, Inc., Dallas, Tex.; 1 μM), dasatinib (Santa Cruz Biotechnology, Inc., Dallas, Tex.; 1 μM), tofacitinib (Selleck Chemicals LLC, Houston, Tex.; 1 μM), anti-VpreB Fab (1 μM), 3AC (Echelon Biosciences, Inc., Salt Lake City, Utah), and/or recombinant galectin-1 (PreproTech, Inc., Rocky Hill, N.J.; 10 μM), +/− lactose.
LAB-TEK imaging chambers (ThermoFisher Scientific, Waltham, Mass.) were coated with poly-1-lysine hydrobromide (Sigma-Aldrich, St. Louis, Mo.) at 1 mg/ml in sterile water for 20 minutes at room temperature, followed by three washes. BCP-ALL cells were serum-starved in RPMI 1640 without FBS for two hours prior to being added to coated wells and incubated for 15 minutes at 37° C. QD-Fab-CD79b or QD-Fab-IgM were added at 100 pM in Tyrodes's solution (Sigma-Aldrich, St. Louis, Mo.) with 0.1% (w/v) BSA and 20 mM glucose for 10-15 minutes at 37° C.
All corresponding GPU single particle tracking and track elongation, squared displacement, mean square displacement, correlated motion, fiducial data acquisition and image registration and three-state hidden Markov Model used in this study have been described in detail previously (Low-Nam et al, 2011, Nat Struct Mol Biol 18:1244-1249).

[6] = tested on: patient #280 BCP-ALL blasts; experiment: flow cytometry apoptosis assay (Annexin-V / 7-AAD), patient #280 cells; type: cell-based, human; settings: patient #280 blasts, single agent, 24-hour culture (dasatinib 10 μM)
Protocol: Blockade of pre-BCR homotypic self-association can sensitize patient cells to vincristine. […] Blasts from patient #280 also were very sensitive to dasatinib as a single agent (80% 7-AAD/Annexin-V positive after 24-hour culture). Longer incubations were not feasible, since cells from this patient were 40% 7-AAD positive when incubated with no drug or in the presence of vincristine up to 5 ng/ml.
Leukemia cell apoptosis was measured based upon binding to Annexin-V-FITC (BioLegend, Inc., San Diego, Calif.) and loss of cell viability measured by 7-AAD labeling (BioLegend, Inc., San Diego, Calif.), according to manufacturer's procedures. For receptor-binding experiments, cells were incubated under saturating conditions for 1.5 hours on ice in PBS with anti-CD79b-APC antibody (BioLegend, Inc., San Diego, Calif.) or anti-VpreB-PE antibody (BioLegend, Inc., San Diego, Calif.). Flow results were calibrated using QUANTUM SIMPLY CELLULAR (Bangs Laboratories, Inc., Fishers, Ind.) beads with anti-mouse Fc antibody according to manufacturer's instruction. […] All flow cytometry data collection was conducted on the HYPERCYT platform (IntelliCyt Corp., Albuquerque, N. Mex.; Edwards et al., 2009, Methods Mol Biol 486:151-165) and analyzed with the FLOWJO Software Suite (FlowJo, LLC, Ashland, Oreg.).

[7] = target: T2, pre-BCR on 697 cells (Homo sapiens, UniProt P12018+P15814); experiment: fluorescence imaging of pre-BCR clustering by labeled galectin-1; type: cell-based; settings: Alexa 555-conjugated galectin-1 10 μM, within five minutes
T2 construct: endogenous in cells; host or cells: 697 (BCP-ALL cell line)
T2 sequence (P15814 38-213, one chain of several): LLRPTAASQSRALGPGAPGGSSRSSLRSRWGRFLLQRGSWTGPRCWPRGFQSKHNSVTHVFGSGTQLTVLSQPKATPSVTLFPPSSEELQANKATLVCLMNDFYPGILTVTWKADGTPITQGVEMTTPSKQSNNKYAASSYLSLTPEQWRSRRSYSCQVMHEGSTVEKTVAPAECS

Row | Molecule | BCL6 expression [2] | apoptosis in cells treated with vincristine over a range of doses [3] | accumulation of phospho-Syk (Syk phosphorylation) [4] | overall diffusion (mobility) of pre-BCR [5] | further results
1 | CC(C)CCC[C@@H](C)[C@H]1CC[C@H]2[C@@H]3CC[C@H]4C[C@H](N)CC[C@]4(C)[C@H]3CC[C@]12C [3AC, 3-a-aminocholestane] | completely repressed | potentiate apoptosis | slightly elevated | – | BCL6 levels [1]: marked decline
2 | COc1ccc(-c2cc3nccn3c(Nc3ncccc3C(N)=O)n2)cc1OC [Bay-61-3606] | – | potentiate apoptosis | – | overall increased mobility | diminished accumulation of Syk PY352 ([4]; pervanadate-treated): approximately 20%
3 | Cc1nc(Nc2ncc(C(=O)Nc3c(C)cccc3Cl)s2)cc(N2CCN(CCO)CC2)n1 [dasatinib] | – | – | – | – | 7-AAD/Annexin-V positive [6]: 80%
4 | C[C@@H]1CCN(C(=O)CC#N)C[C@@H]1N(C)c1ncnc2[nH]ccc12 [tofacitinib] | elevated levels | potentiate apoptosis | did not alter | not Jak (tofacitinib) results in a global increase | –
5 | CC[C@]1(O)C[C@H]2CN(CCc3c([nH]c4ccccc34)[C@@](C(=O)OC)(c3cc4c(cc3OC)N(C=O)[C@H]3[C@@](O)(C(=O)OC)[C@H](OC(C)=O)[C@]5(CC)C=CCN6CC[C@]43[C@@H]65)C2)C1 [vincristine] | – | – | – | – | apoptotic cells ([3]; vincristine 10 ng/ml, with or without VpreB Fabs (5 μM)): 69.9%
6 | galectin-1: recombinant human galectin-1, crosslinks pre-BCR via surrogate light chain | – | – | – | far less mobile | immobile fraction of pre-BCR (D<0.05 μm^2/sec) [5]: A large fraction of pre-BCR become essentially immobile; clustering of the pre-BCR [7]: marked clustering of the pre-BCR
